US20130210852A1, “METHODS FOR TREATING INFECTION” (priority 2010, published 2013)
Values after ≈ are worked out from the molar mass of the structure shown. “Also recorded” adds a separate entry of the source. Like-named read-outs stand apart in the source and are kept apart here.

Legend:
[1] = system: enteroaggregative E coli strains; assay: MIC against rifaximin by agar dilution, EAEC isolates; assay type: cell-based; settings: Escherichia coli; 2 EAEC isolates
Procedure: (§1) Five enterotoxigenic E coli strains, 2 enteroaggregative E coli strains, and 1 S sonnei isolate were included in the study. The isolates had been identified previously from patients with TD acquired in Guadalajara, Mexico, during the summer of 2004 (5). […] The susceptibility of all isolates to rifaximin was determined by agar dilution methodology following the recommendations of the Clinical and Laboratory Standards Institute.

EAEC isolates = assay: Isolate viability after rifaximin exposure, EAEC
MMP-9 in EAEC isolates = assay: Matrix metalloproteinase-9 detection by gelatin zymography, EAEC; assay type: cell-based, Escherichia coli
Procedure: Matrix Metalloproteinase-9 Detection Expression of matrix metalloproteinase-9 (MMP-9) was analyzed using gelatin zymography in all viable EAEC and S. sonnei isolates growing on MacConkey agar. Isolates were suspended in 1 mL of 0.1 M phosphate buffered saline (pH 7.2) and centrifuged at 1000 g for 10 minutes at 4° C. The supernatant was subjected to gelatin zymography to detect MMP-9 activity using a modified Heussen and Dowdle protocol (9). In summary, the supernatant was diluted 1:2 in a sample buffer (125 mM Tris-HCl, pH 6.8, 20% glycerol, 4% sodium dodecyl sulfate, 0.02% bromphenol blue), and 20 μL was loaded on to a 10% SDS-PAGE gel containing 1 mg/mL gelatin. Prestained standard proteins were used as molecular weight markers. After electrophoresis, gels were rinsed with incubation buffer (2.5% triton X-100, 50 mM Tris-HCl, pH 7.4, 0.02% Brij 35, 10 mM CaCl2, 2 μM ZnCl2) for 1 hour at room temperature to remove SDS. Gels were then incubated overnight at 37° C. and subsequently stained with Coomassie brilliant blue R-250 (Thermo Fisher Scientific, Inc, Rockford, Ill.). […] Matrix metalloproteinase-9 was identified among all gelatinolytic proteins by size.

[2] = system: ETEC isolates (ST, LT, CS2/CS3, CS6); assay type: cell-based, Escherichia coli; as to Expression of virulence factor CS2/CS3 in ETEC isolates: key: + = present; − = not present; NV, not viable; as to Expression of virulence factor CS6 in ETEC isolates: key: + = present; − = not present; NV, not viable; as to Expression of virulence factor LT in ETEC isolates: key: + = present; − = not present; NV, not viable; as to Expression of virulence factor ST in ETEC isolates: key: + = present; − = not present; NV, not viable
[3] = system: B. anthracis Sterne strain 7702 spores on A549 cells; assay type: cell-based, human; settings: A549 cells pretreated 24 h, spores 1 h
S sonnei isolate = assay: MIC against rifaximin by agar dilution, S sonnei isolate; assay type: cell-based; settings: Shigella sonnei
Procedure: as §1

[4] = system: enterotoxigenic E coli strains; assay: MIC against rifaximin by agar dilution, ETEC isolates; assay type: cell-based; settings: Escherichia coli
Procedure: as §1

[5] = system: EAEC adherence with dialyzed conditioned medium of HEp-2 cells; assay: Effect of dialyzed HEp-2 supernatants on EAEC adherence; assay type: cell-based, human; design: dose or concentration left out as unconfirmed; settings: HEp-2 treated 24 h, supernatant dialyzed; chambers with or without HEp-2 cells, 3 h
Procedure: HEp-2 cells were cultured in T-175 flasks as described above. […] After 24 h, the medium was collected, loaded into regenerated cellulose dialysis tubing (cutoff, 6 to 8 kDa; Spectra/Por, Rancho Domiguez, Calif.), and dialyzed against 4 liters of PBS changed four times. Each dialysis step lasted at least 6 h and was carried out at 4° C. Dialyzed supernatants were either used immediately in adherence assays or stored at −20° C. until use.
The effect of supernatants on EAEC adherence was determined by mixing EAEC with the dialyzed media from the different antibiotic (or control) treatment groups and adding the bacteria to HEp-2 cells cultured in chambered slides or to chambered slides with no HEp-2 cells. Adherence was visualized microscopically as described above.

HEp-2 cells = assay: Cytokine arrays of HEp-2 supernatants (Panomics); settings: antibiotic 64 μg/ml, 24 h
C difficile = settings: cited from earlier work
[6] = system: EAEC strain O42 adherence to HEp-2 cells; assay type: cell-based, human
[7] = system: EAEC strain O42 adherence to HEp-2 cells; assay: HEp-2 cell attachment assay (microscopy after Wright-Giemsa staining); assay type: cell-based, human; settings: HEp-2 cells incubated 24 h with antibiotic, washed, then EAEC 3 h
[8] = rifaximin 8 mg/L, exposure 4 hrs
[9] = rifaximin 8 mg/L, exposure 8 hrs
[10] = rifaximin 8 mg/L, exposure 18 hrs
[11] = rifaximin 8 mg/L, exposure 24 hrs
[12] = rifaximin 32 mg/L, exposure 4 hrs
[13] = rifaximin 32 mg/L, exposure 8 hrs
[14] = rifaximin 32 mg/L, exposure 18 hrs
[15] = rifaximin 64 mg/L, exposure 4 hrs
[16] = rifaximin 64 mg/L, exposure 8 hrs

## CO[C@H]1/C=C/O[C@@]2(C)Oc3c(C)c(O)c4c(O)c(c5c(nc6cc(C)ccn65)c4c3C2=O)NC(=O)/C(C)=C\C=C\[C@H](C)[C@H](O)[C@@H](C)[C@@H](O)[C@@H](C)[C@H](OC(C)=O)[C@@H]1C [Rifaximin, (2S,16Z,18E,20S,21S,22R,23R,24R,25S,26S,27S,28E)-5,6,21,23,25 Pentahydroxy-27-methoxy-2,4,11,16,20,22,24,26-octamethyl-2,7-(epoxypentadeca-(1,11,13)trienimino)benzofuro (4,5-e) pyrido(1,2,-a) benzimidazole-1,15(2H)-dione,25-acetate]
[1]
  MIC: 64 µg/mL (≈ 81.4 µM)
EAEC isolates; rifaximin 8 mg/L for 24 hours
  EAEC viability after exposure: viable
EAEC isolates; rifaximin 8, 32, and 64 mg/L at 4, 8, and 18 hours
  EAEC viability after exposure: viable
EAEC isolates; rifaximin 32 and 64 mg/L for 24 hours
  EAEC viability after exposure: no viable isolates were recovered
MMP-9 in EAEC isolates; rifaximin 8 mg/L for 4 and 8 hours
  MMP-9 expression by EAEC isolates: expressed MMP-9
MMP-9 in EAEC isolates; rifaximin 8 mg/L for 24 hours
  MMP-9 expression by EAEC isolates: undetectable
MMP-9 in EAEC isolates; rifaximin 8 mg/L, 18-hour time point
  MMP-9 expression by EAEC isolates: one EAEC isolate produced MMP-9, but the other isolate did not
MMP-9 in EAEC isolates; rifaximin 32 or 64 mg/L for 4, 8, or 18 hours
  MMP-9 expression by EAEC isolates: undetectable
[2]; 4- and 8-hour exposure to rifaximin 8, 32, and 64 mg/L
  Expression of all examined virulence factors (ST, LT, CS2/CS3, CS6) by viable ETEC isolates: expressed all examined virulence factors
[2]; 18-hour time point, rifaximin 8 mg/L
  Expression of all examined virulence factors (ST, LT, CS2/CS3, CS6) by viable ETEC isolates: all virulence factors were expressed
[2]; 18-hour time point, rifaximin 32 mg/L
  Expression of all examined virulence factors (ST, LT, CS2/CS3, CS6) by viable ETEC isolates: no factors were seen
[2]; 24-hour exposure to rifaximin 8 mg/L
  Expression of all examined virulence factors (ST, LT, CS2/CS3, CS6) by viable ETEC isolates: did not express any virulence factors
[2]; [8]
  Expression of virulence factor CS2/CS3 in ETEC isolates: +
  Expression of virulence factor CS6 in ETEC isolates: +
  Expression of virulence factor LT in ETEC isolates: +
  Expression of virulence factor ST in ETEC isolates: +
  Expression of virulence factor ST/LT in ETEC isolates: +
[2]; [9]
  Expression of virulence factor CS2/CS3 in ETEC isolates: +
  Expression of virulence factor CS6 in ETEC isolates: +
  Expression of virulence factor LT in ETEC isolates: +
  Expression of virulence factor ST in ETEC isolates: +
  Expression of virulence factor ST/LT in ETEC isolates: +
[2]; [10]
  Expression of virulence factor CS2/CS3 in ETEC isolates: +
  Expression of virulence factor CS6 in ETEC isolates: +
  Expression of virulence factor LT in ETEC isolates: +
  Expression of virulence factor ST in ETEC isolates: +
  Expression of virulence factor ST/LT in ETEC isolates: +
[2]; [11]
  Expression of virulence factor CS2/CS3 in ETEC isolates: −
  Expression of virulence factor CS6 in ETEC isolates: −
  Expression of virulence factor LT in ETEC isolates: −
  Expression of virulence factor ST in ETEC isolates: −
  Expression of virulence factor ST/LT in ETEC isolates: −
[2]; [12]
  Expression of virulence factor CS2/CS3 in ETEC isolates: +
  Expression of virulence factor CS6 in ETEC isolates: +
  Expression of virulence factor LT in ETEC isolates: +
  Expression of virulence factor ST in ETEC isolates: +
  Expression of virulence factor ST/LT in ETEC isolates: +
[2]; [13]
  Expression of virulence factor CS2/CS3 in ETEC isolates: +
  Expression of virulence factor CS6 in ETEC isolates: +
  Expression of virulence factor LT in ETEC isolates: +
  Expression of virulence factor ST in ETEC isolates: +
  Expression of virulence factor ST/LT in ETEC isolates: +
[2]; [14]
  Expression of virulence factor CS2/CS3 in ETEC isolates: −
  Expression of virulence factor CS6 in ETEC isolates: −
  Expression of virulence factor LT in ETEC isolates: −
  Expression of virulence factor ST in ETEC isolates: −
  Expression of virulence factor ST/LT in ETEC isolates: −
[2]; [15]
  Expression of virulence factor CS2/CS3 in ETEC isolates: +
  Expression of virulence factor CS6 in ETEC isolates: +
  Expression of virulence factor LT in ETEC isolates: +
  Expression of virulence factor ST in ETEC isolates: +
  Expression of virulence factor ST/LT in ETEC isolates: +
[2]; [16]
  Expression of virulence factor CS2/CS3 in ETEC isolates: +
  Expression of virulence factor CS6 in ETEC isolates: +
  Expression of virulence factor LT in ETEC isolates: +
  Expression of virulence factor ST in ETEC isolates: +
  Expression of virulence factor ST/LT in ETEC isolates: +
[3]
  adherence of B. anthracis: significant reductions
[3]; then gentamicin 100 μg/ml 1 h
  internalization of B. anthracis: significant reductions
S sonnei isolate
  MIC: 16 µg/mL (≈ 20.4 µM)
[4]; read-out: MIC, ETEC, 2 ETEC isolates
  MIC: 128 µg/mL (≈ 163 µM)
[4]; read-out: MIC, all ETEC and EAEC isolates, 5 ETEC and 2 EAEC isolates
  MIC: 64 to 128 µg/mL (≈ 81.4 to 163 µM)
[5]
  EAEC adherence after mixing with dialyzed supernatants of antibiotic-treated HEp-2 cells: adhered poorly
HEp-2 cells
  cytokine profile of HEp-2 supernatants: contained detectable levels of RANTES and IL-4 only; also recorded: reduced the expression of various proinflammatory cytokines
C difficile; 110 C difficile isolates
  isolates resistant to rifaximin, based on MIC values: 2.7%
C difficile; 110 isolates, 1983 to 2004
  MIC50 against C difficile: 0.0075 µg/mL (≈ 0.00954 µM)
  MIC90 against C difficile: 0.015 µg/mL (≈ 0.0191 µM)
[6]
  EAEC adherence to HEp-2 cells (CFU, % of total bacteria added): significantly lower; also recorded: significantly reduced; also recorded: reduced EAEC adherence
[6]; HEp-2 cells pretreated 24 h, EAEC 3 h
  EAEC bacterial counts in the supernatants: No differences in bacterial counts
[7]
  EAEC O42 adherence to HEp-2 cells (microscopy): greatly reduced
